The source of these data is US10335503B2, “Compound that specifically binds to AMPA receptor” (Public University Corporation Yokohama City University, priority 2015, dated 2019).

The test system of experiment [1] is AMPA receptor. In words: Biochemical experiment: biotinylation and quantitative Western blot of AMPA receptor after administration to living rat. It is filed as in vivo. As to the method:
In the LC-MS/MS experiment, all of the synthesized compounds were dissolved in 100% DMSO so as to have a concentration of 2.5 mM, diluted with physiological saline water immediately before administration (PEPA (1.2 pmol/g), M-1 (12 pmol/g), K-2 (12 pmol/g), M-3 (60 pmol/g), and M-2 (240 pmol/g)), and administered by the parenteral route. In the electrophysiological experiment, PEPA and K-2 were dissolved in 100% DMSO so as to have a concentration of 150 mM, diluted with ACSF as a reflux liquid immediately before the experiment so as to have a concentration of 150 μM and then used. In the biochemical experiment and the PET blocking experiment, K-2 was dissolved in 50% DMSO so as to have a concentration of 2.5 mM and 25 mM, and then administered to a rat at an amount of administration of 1 μl/weight (g) by the parenteral route so as to be 0.5 mg/kg and 5 mg/kg.
The LC-MS/MS experiment and the biochemical experiment were performed after a rat was allowed to get to sleep by inhalation of isoflurane while anesthesia was maintained using a dedicate carburetor at a concentration of 1.5%. […] In the LC-MS/MS experiment, the hippocampus region was collected in a thickness of approximately 2 mm from the extracted whole brain using Brain matrix (ASI instruments, U.S.), the tissue weight thereof was measured, and then the hippocampus region was put into a 1.5-ml conical tube. […]
Background: In western blotting, separated proteins are transferred to a membrane and probed.

A further experiment addresses α2A-Adrenergic (Homo sapiens, UniProt P08913). Briefly: Receptor binding panel: α2A-Adrenergic. The following applies: K-2 at 1 × 10^−7 mol/L.
Another experiment has as its target Dopamine D2 short (Homo sapiens, UniProt P14416). In words: Receptor binding panel: Dopamine D2 short. The settings on record: K-2 at 1 × 10^−7 mol/L.
Another experiment addresses α2B-Adrenergic (Homo sapiens, UniProt P18089). In words: Receptor binding panel: α2B-Adrenergic. The following applies: K-2 at 1 × 10^−7 mol/L.
In experiment [2] the target is Norepinephrine transporter (Homo sapiens, UniProt P23975). Briefly: Receptor binding panel: Norepinephrine transporter. The following applies: K-2 at 1 × 10^−7 mol/L.
Experiment [3] relates to AMPA receptor. Briefly: Electrophysiological experiment: AMPA current by whole-cell recording in acute hippocampus section. The following applies: 150 μM in ACSF for 15 minutes, CA1 pyramidal cell, ground state converted as 1. It is filed as cell-based, rat. Here is the method: In the LC-MS/MS experiment, all of the synthesized compounds were dissolved in 100% DMSO so as to have a concentration of 2.5 mM, diluted with physiological saline water immediately before administration (PEPA (1.2 pmol/g), M-1 (12 pmol/g), K-2 (12 pmol/g), M-3 (60 pmol/g), and M-2 (240 pmol/g)), and administered by the parenteral route. In the electrophysiological experiment, PEPA and K-2 were dissolved in 100% DMSO so as to have a concentration of 150 mM, diluted with ACSF as a reflux liquid immediately before the experiment so as to have a concentration of 150 μM and then used. […]
A 7- to 8-week-old male SD rat was used. […] The section was left to stand still in ACSF at room temperature for 60 minutes, and then the AMPA current was measured by a whole-cell recording method. 100 μM of picrotoxin and 100 μM of DL-APV were administered under the condition that the ACSF was refluxed at a rate of 3 ml/min, and then only the AMPA current was isolated and measured.
The recording electrode was placed on a pyramidal cell in CA1, and the exciting electrode was placed on the Schaffer fiber separated away from the recording cell by 100 to 200 μm. […] The AMPA current in the ground state was recorded for 5 minutes, reflux was thereafter performed using ACSF added with PEPA or K-2 for 15 minutes, and then the AMPA current was recorded in the reflux liquid not containing PEPA or K-2 for 30 minutes. […]

The next experiment addresses α1A-Adrenergic (Homo sapiens, UniProt P35348). Briefly: Receptor binding panel: α1A-Adrenergic. The following applies: K-2 at 1 × 10^−7 mol/L.

The structures appear in SMILES notation.

Chain of α2A-Adrenergic (P08913 whole entry): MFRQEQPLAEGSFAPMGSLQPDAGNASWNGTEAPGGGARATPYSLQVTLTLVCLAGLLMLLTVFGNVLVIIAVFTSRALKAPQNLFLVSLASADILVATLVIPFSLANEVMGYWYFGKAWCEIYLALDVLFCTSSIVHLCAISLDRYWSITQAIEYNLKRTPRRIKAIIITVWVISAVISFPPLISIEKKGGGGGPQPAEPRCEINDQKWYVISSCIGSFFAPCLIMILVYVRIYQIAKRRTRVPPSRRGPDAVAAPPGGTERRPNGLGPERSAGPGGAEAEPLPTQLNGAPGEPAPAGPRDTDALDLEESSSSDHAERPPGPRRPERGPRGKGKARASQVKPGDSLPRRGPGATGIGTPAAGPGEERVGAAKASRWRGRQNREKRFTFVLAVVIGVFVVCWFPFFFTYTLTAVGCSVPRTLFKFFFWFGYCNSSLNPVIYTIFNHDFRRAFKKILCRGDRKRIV
Chain of Dopamine D2 short (P14416 1-414 isoform P14416-2): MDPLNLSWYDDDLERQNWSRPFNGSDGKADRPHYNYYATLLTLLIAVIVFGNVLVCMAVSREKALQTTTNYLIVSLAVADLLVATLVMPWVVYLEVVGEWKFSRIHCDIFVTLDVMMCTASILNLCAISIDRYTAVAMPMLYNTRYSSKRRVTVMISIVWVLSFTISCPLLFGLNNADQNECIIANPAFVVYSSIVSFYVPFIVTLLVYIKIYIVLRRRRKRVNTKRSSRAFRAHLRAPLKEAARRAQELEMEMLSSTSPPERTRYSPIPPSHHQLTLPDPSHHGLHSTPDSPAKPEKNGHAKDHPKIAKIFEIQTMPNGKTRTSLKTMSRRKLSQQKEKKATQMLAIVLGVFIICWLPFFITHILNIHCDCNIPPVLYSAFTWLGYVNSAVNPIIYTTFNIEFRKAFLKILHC
Chain of α2B-Adrenergic (P18089 whole entry): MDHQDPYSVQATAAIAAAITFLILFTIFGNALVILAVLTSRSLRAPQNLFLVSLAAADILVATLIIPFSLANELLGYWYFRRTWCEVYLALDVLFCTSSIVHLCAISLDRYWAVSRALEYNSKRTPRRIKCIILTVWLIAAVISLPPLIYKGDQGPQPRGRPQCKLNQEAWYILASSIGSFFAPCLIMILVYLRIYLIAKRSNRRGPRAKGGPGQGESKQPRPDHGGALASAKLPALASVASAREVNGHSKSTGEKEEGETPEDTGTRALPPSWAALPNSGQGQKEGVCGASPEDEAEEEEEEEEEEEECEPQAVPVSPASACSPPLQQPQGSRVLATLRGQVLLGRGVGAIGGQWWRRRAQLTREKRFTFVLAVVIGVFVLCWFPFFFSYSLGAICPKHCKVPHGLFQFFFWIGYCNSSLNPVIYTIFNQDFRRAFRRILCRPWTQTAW
Chain of α1A-Adrenergic (P35348 whole entry): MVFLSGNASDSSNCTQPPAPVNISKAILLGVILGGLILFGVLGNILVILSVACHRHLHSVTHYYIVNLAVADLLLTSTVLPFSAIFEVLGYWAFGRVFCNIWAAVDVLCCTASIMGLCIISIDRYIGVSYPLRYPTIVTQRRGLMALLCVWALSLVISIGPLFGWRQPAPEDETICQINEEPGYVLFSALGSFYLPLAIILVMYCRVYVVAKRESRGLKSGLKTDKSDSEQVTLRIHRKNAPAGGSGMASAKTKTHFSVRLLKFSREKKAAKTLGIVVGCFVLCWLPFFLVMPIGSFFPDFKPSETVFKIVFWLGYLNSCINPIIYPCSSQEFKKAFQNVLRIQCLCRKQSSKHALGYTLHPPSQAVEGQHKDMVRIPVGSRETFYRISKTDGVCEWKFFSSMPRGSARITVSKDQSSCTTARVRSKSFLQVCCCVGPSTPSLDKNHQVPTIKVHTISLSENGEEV
Chain of Norepinephrine transporter (P23975 whole entry): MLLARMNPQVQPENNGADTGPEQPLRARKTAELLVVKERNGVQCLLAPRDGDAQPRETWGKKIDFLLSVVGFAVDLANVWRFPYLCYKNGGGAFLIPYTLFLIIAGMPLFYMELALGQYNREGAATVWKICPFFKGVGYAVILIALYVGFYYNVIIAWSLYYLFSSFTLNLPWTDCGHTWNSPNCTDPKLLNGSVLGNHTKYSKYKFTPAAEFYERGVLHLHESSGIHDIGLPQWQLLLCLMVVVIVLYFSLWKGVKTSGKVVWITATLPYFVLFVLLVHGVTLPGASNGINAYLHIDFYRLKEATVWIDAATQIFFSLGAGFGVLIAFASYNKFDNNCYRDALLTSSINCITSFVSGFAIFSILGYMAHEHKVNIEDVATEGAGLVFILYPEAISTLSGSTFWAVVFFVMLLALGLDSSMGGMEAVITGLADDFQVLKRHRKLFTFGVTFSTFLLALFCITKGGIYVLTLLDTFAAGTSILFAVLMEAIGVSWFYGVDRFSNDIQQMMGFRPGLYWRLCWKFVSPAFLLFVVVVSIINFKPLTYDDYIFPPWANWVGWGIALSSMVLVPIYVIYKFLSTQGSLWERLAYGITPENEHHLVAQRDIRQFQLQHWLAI

As usually defined, the inhibition is how much of the control response was suppressed. A lower inhibition goes with a weak effect. With `CN(CCSc1cc(F)c(OCC(N)=O)c(F)c1)S(=O)(=O)c1ccccc1` [K-2, {4-[2-(benzenesulfonyl-methyl-amino)-ethylsulfanil]-2,6-difluoro-phenoxy}-acetamide], the “AMPA receptor presented on the surface of the cell membrane” value in the experiment on AMPA receptor [1] (5 mg/kg of K-2, hippocampus, vs 50% DMSO) is reported as 136%±14. The “change in the total amount of the AMPA receptors” value in the experiment with AMPA receptor [1] (5 mg/kg of K-2, same animal) was “not recognized”. For the same compound, the inhibition at 0.1 µM amounted to 8.77% on α2A-Adrenergic; 5.33% on Dopamine D2 short; 5.83% on α2B-Adrenergic; 0% in experiment [2]; 0.21% on α1A-Adrenergic. Besides, the “ratio of AMPA current to reference value” in the experiment with AMPA receptor [3] was 1.7±0.22.
